Reference: patent US6197768A, “Pyridocarbazole derivatives having cgmp-pde inhibitory activity” (Mochida Pharmaceutical Co., Ltd., priority 1996, dated 2001)
pIC50: −log10 of the molar value. Like-named read-outs stand apart in the source and are kept apart here.

Assays:
PDE type III = target: T1, PDE type III (Canis lupus familiaris, UniProt A0A8I3NYE0); assay: PDE Inhibiting Activity, type III; type: biochemical, dog (canine aorta)
T1 construct: PDE was purified from the aorta in a dog; from tissue; host or cells: dog aorta
T1 sequence (A0A8I3NYE0 1-1135): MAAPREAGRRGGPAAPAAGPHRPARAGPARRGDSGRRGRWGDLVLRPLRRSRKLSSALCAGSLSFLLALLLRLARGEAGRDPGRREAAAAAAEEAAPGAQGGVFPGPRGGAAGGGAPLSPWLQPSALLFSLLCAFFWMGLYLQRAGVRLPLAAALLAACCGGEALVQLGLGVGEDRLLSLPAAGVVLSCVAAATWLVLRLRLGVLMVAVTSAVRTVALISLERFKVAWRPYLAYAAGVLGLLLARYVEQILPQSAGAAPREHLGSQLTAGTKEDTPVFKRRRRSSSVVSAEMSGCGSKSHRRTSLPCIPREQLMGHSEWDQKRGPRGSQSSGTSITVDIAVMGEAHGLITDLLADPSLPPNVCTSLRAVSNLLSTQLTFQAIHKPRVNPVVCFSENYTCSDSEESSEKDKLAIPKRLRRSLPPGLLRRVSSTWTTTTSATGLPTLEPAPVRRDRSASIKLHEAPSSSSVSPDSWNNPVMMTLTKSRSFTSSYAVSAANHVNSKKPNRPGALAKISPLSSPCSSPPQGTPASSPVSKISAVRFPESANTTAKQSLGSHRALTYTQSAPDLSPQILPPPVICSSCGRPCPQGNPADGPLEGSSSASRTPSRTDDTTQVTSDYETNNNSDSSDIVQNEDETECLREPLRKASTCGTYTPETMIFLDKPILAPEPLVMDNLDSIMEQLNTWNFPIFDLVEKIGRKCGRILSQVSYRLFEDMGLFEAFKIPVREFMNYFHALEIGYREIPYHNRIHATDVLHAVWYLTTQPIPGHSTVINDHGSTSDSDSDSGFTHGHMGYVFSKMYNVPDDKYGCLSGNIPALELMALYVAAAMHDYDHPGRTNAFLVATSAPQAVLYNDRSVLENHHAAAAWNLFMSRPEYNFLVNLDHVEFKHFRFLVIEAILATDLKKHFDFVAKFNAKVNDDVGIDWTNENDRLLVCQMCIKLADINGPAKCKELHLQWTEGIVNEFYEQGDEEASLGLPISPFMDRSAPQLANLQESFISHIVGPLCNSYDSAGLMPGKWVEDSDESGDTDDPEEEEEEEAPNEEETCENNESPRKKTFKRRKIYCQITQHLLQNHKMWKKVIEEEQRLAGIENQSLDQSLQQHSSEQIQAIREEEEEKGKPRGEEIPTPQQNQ
Description: (§1) On the basis of the method of Lugnier et al. (Biochem. Pharmacol., 35, 1743-1751, 1986), PDE was purified from the aorta in a dog. The canine aorta was minced and homogenized with a Waring Blender and a glass homogenizer in six volumes of a Tris-HCl buffer solution (pH 7.5, 20 mM) containing 2 mM magnesium acetate, 5 mM ethylenediaminetetraacetic acid (EDTA), 100 μg/mL of phenylmethylsulforyl fluoride and 15 mM 2-mercaptoethanol (2-ME), and centrifuged at 1200 xg for 30 min. The supernatant was separated and salted out with ammonium sulfate which was added to 45% saturation. The resulting precipitated fraction was resuspended in a Tris-HCl buffer solution (pH 7.5, 20 mM) containing 2 mM magnesium acetate and 1 mM 2-ME, dialyzed overnight and applied to a DEAE-trisacryl column (DEAE […] M:IBF). By elution with a sodium chloride gradient (0-0.4 M), PDE types V and III were separated from the other isozymes. The supernatant fraction of 45% saturated ammonium sulfate was further mixed with ammonium sulfate to 65% saturation and salted out. The resulting precipitated fraction was similarly applied to the DEAE-trisacryl column and eluted by a sodium chloride gradient (0-0.4 M) so as to separate PDE type I.
(§2) The thus obtained PDE types V, III and I were measured for their activity in accordance with the method of Thompson et al. (Adv. Cyclic Nucleotide Res., 10, 69-72, 1979) and the method of Wells et al. (Biochim. Biophys. Acta, 384, 430-443, 1975). Specifically, a purified PDE sample was added to 50 mM Tris-HCl buffer solution (pH 7.5) containing 1 μM of substrate cGMP or cAMP (containing tritium-labelled cGMP or cAMP), 1 mM EGTA and 2 mM magnesium acetate. For PDE activity measurement, enzymatically produced 5' GMP or 5' AMP was further hydrolyzed into guanosine or adenosine with snake venom and separated from the substrate by means of an ion-exchange resin (Dowex 1-X2), followed by measuring with a scintillation counter. The activity of each test compound was determined as a percentage of the DPE activity measured when it was added as a dimethyl sulfoxide solution (DMSO) and its IC50 (50% inhibition concentration) was calculated by the probit method. The final concentration of DMSO was adjusted to be no more than 2% in consideration of the effect on PDE activity.

PDE type I = assay: PDE Inhibiting Activity, type I; type: biochemical, dog (canine aorta); details: PDE type I from canine aorta, 1 μM substrate, pH 7.5; read-out: Inhibition Activity IC50, Type I
Description: as §1, §2

[1] = tested on: pulmonary arterial pressure; assay: Pulmonary Arterial Pressure Lowering Action in anesthetized dogs; type: in vivo, adult mongrel dogs; details: anesthetized dogs
Description: (§3) Adult mongrel dogs were anesthetized by intramuscular administration of 20 mg/kg of ketamine and intravenous administration of 20 mL/kg of physiological saline containing 5 mg/mL of α-chloralose; under artificial respiration, the aortic pressure was measured with a catheter inserted into the femoral artery and the pulmonary arterial pressure with a Swan-Ganz catheter inserted into the pulmonary artery. Anesthesia was maintained by intravenous administration of physiological saline containing 5 mg/mL of α-chloralose at a rate of 5 mL/kg per hour. Comparison was made between nitroglycerin, nifedipine and test compounds which were administered intravenously at doses of 0.01-1 mg/kg. Each test compound was dissolved in dimethylformamide (DMF) and sequentially diluted with polyethylene glycol 200 and water to give respective proportions of 20, 50 and 30% (v/v) and administrated by injection into the right femoral vein in a volume of 0.3 mL/kg. The results are shown in Table 2 below, in which maximal percent decreases in the pulmonary arterial pressure and aortic pressure are listed to show the effectiveness of each test compound in lowering the pulmonary arterial pressure and the systemic blood pressure, respectively.

systemic blood pressure = assay: Systemic blood (aortic) pressure lowering in anesthetized dogs; type: in vivo, adult mongrel dogs
Description: as §3

[2] = PDE type III from canine aorta, 1 μM substrate, pH 7.5, read-out: Inhibition Activity IC50, Type III
[3] = Canis lupus familiaris, iv, 0.3 mg/kg intravenous, maximal percent decrease, read-out: Reduction in pulmonary arterial pressure
[4] = Canis lupus familiaris, iv, 0.3 mg/kg intravenous, anesthetized dogs, maximal percent decrease, read-out: Reduction in systemic blood pressure

| Structure (SMILES) | pIC50 (PDE type III; [2]) | pIC50 (PDE type I) | inhibition in vivo at 0.3 mg/kg [1, 3] | inhibition in vivo at 0.3 mg/kg (systemic blood pressure; [4]) | also measured |
| --- | --- | --- | --- | --- | --- |
| Cc1cn2c3ccc(Br)cc3c3cc(OCC(=O)OC(C)(C)C)cc(c1=O)c32 [Example 50, 10-bromo-2-t-butoxycarbonylmethyloxy-5-methyl-4H-pyrido [3,2,1-jk]carbazole-4-one] | < 4.52 | < 4.52 | 33% | 13% |  |
| CC(C)(C)OC(=O)COc1cc2c(=O)c(Cc3cccnc3)cn3c4ccc(Br)cc4c(c1)c23 [Example 3, 10-bromo-2-t-butoxycarbonylmethyloxy-5-(3-pyridylmethyl)-4H-pyrido [3,2,1-jk]carbazole-4-one] | < 4.52 | < 4.52 | 19% | 12% |  |
| CCNC(=O)COc1cc2c(=O)c(Cc3cccnc3)cn3c4cc(Br)ccc4c(c1)c23 [Example 109, 9-bromo-2-(N-ethylcarbamoylmethyloxy)-5-(3-pyridylmethyl)-4H-pyrido [3,2,1-jk]carbazole-4-one] |  | < 4.52 | 19% | 11% | pIC50 (PDE type III): 4.85 |
| O=c1c(Cc2cccnc2)cn2c3cc(Br)ccc3c3cc(O)cc1c32 [Example 102, 9-bromo-2-hydroxy-5-(3-pyridylmethyl)-4H-pyrido [3,2,1-jk]carbazole-4-one] | 5.03 | < 4.52 | 24% | 19% |  |
| O=c1c(Cc2cccnc2)cn2c3cc(Br)ccc3c3cc(OCCCO)cc1c32 [Example 110, 9-bromo-2-(3-hydroxypropyloxy)-5-(3-pyridylmethyl)-4H-pyrido [3,2,1-jk]carbazole-4-one] | 5.00 | < 4.52 | 23% | 7% |  |
| O=c1c(Cc2cccnc2)cn2c3cc(Br)ccc3c3cc(OCc4cccnc4)cc1c32 [Example 105, 9-bromo-5-(3-pyridylmethyl)-2-(3-pyridylmethyloxy)-4H-pyrido [3,2,1-jk]carbazole-4-one] | 5.62 | < 4.52 |  |  | inhibition in vivo at 0.1 mg/kg ([1]; Canis lupus familiaris, iv, 0.1 mg/kg intravenous, maximal percent decrease, read-out: Reduction in pulmonary arterial pressure): 16%; inhibition in vivo at 0.1 mg/kg (systemic blood pressure; Canis lupus familiaris, iv, 0.1 mg/kg intravenous, anesthetized dogs, maximal percent decrease, read-out: Reduction in systemic blood pressure): 12% |
| O=c1c(Cc2cccnc2)cn2c3cc(Cl)ccc3c3cc(OCCCO)cc1c32 [Example 285, 9-chloro-2-(3-hydroxypropyloxy)-5-(3-pyridylmethyl)-4H-pyrido[3,2,1-jk]carbazole-4-one methanesulfonate] |  |  | 16% | 2% |  |
| CC(C)(C)OC(=O)COc1cc2c(=O)ccn3c4ccc(Br)cc4c(c1)c23 [Example 60, 10-bromo-2-t-butoxycarbonylmethyloxy-4H-pyrido [3,2,1-jk]carbazole-4-one] | 4.82 | < 4.52 | 20% | 8% |  |
| CCOC(=O)COc1cc2c(=O)ccn3c4ccc(Br)cc4c(c1)c23 [Example 62, 10-bromo-2-ethoxycarbonylmethyloxy-4H-pyrido [3,2,1-jk]carbazole-4-one] | < 4.52 | < 4.52 |  |  |  |
| CCOC(=O)COc1cc2c(=O)c(C)cn3c4ccc(Br)cc4c(c1)c23 [Example 52, 10-bromo-2-ethoxycarbonylmethyloxy-5-methyl-4H-pyrido [3,2,1-jk]carbazole-4-one] | < 4.52 | < 4.52 |  |  |  |
| CS(=O)(=O)O.O=c1c(Cc2cccnc2)cn2c3cc(Br)ccc3c3cc(OCCCO)cc1c32 [Example 279, 9-bromo-2-(3-hydroxypropyloxy)-5-(3-pyridylmethyl)-4H-pyrido[3,2,1-jk]carbazole-4-one methanesulfonate] |  |  |  |  | Reduction in pulmonary arterial pressure ([1]; 0.3 mg/kg intravenous, maximal percent decrease): 17%; Reduction in systemic blood pressure (systemic blood pressure; 0.3 mg/kg intravenous, anesthetized dogs, maximal percent decrease): 4% |
| Cc1cn2c3ccc(Br)cc3c3cc(O)cc(c1=O)c32 [Example 49, 10-bromo-2-hydroxy-5-methyl-4H-pyrido [3,2,1-jk]carbazole-4-one] | 3.70 | < 3.52 |  |  |  |
| O=c1c(Cc2cccnc2)cn2c3cc(C(F)(F)F)ccc3c3cc(OCCCO)cc1c32 [Example 291, 2-(3-hydroxypropyloxy)-5-(3-pyridylmethyl)-9-trifluoromethyl-4H-pyrido[3,2,1-jk]carbazole-4-one methanesulfonate] |  |  | 13% | 4% |  |
| CC(=O)Oc1ccc2c3cccc4c(=O)c(Cc5cccnc5)cn(c2c1)c43 [Example 226] | 4.92 | < 4.52 |  |  |  |
| COC(=O)C1=C(C)NC(C)=C(C(=O)OC)C1c1ccccc1[N+](=O)[O-] [Nifedipine, nifedipine, reference compound] |  |  |  |  | inhibition in vivo at 0.01 mg/kg ([1]; Canis lupus familiaris, iv, 0.01 mg/kg intravenous, maximal percent decrease, read-out: Reduction in pulmonary arterial pressure): 3%; pulmonary arterial versus systemic blood pressure lowering (in words) ([1]; intravenous): lowered the systemic blood pressure by greater degrees than the pulmonary arterial pressure; inhibition in vivo at 0.01 mg/kg (systemic blood pressure; Canis lupus familiaris, iv, read-out: Reduction in systemic blood pressure): 18% |
